Test results: patent publication US8664405B2, “Sulfonic acid salt compound of 4-carbamoyl-5-hydroxy-imidazole derivative” (Fujifilm Corporation, priority 2007, dated 2014)

Tests used:
[1] = Evaluation of the storage stability in crystalline state by visual observation; assay type: physicochemical; settings: autoclave at 120° C. under a saturated vapor of water for 30 minutes
Method: (Evaluation 1) Evaluation of the Storage Stability in Crystalline State by Visual Observation
SM-108 [2] obtained in Example 1 and benzensulfonic acid salt of SM-108 [5] obtained in Example 2 were placed in an autoclave at 120° C. under a saturated vapor of water for 30 minutes.

[2] = clinical trial by Sumitomo Pharmaceuticals in 1980s; cited from earlier work
[3] = Evaluation of the storage stability in an aqueous solution (UV-Vis spectra); assay type: physicochemical; settings: dilute aqueous solution, room temperature, after 60 days
Method: (Evaluation 2) Evaluation of the Storage Stability in an Aqueous Solution
SM-108 obtained in Example 1 and hydrochloric acid salt of SM-108 obtained in Example 3 were dissolved into water to dilute aqueous solutions. UV-Vis spectra of those solutions were recorded just after making solutions and after leaving at room temperature for 60 days.

[4] = Storage stability (general statements); assay type: physicochemical; settings: solid; no test conditions given

SMILES	colour of the crystalline substance after treatment (visual observation) [1]	clinical effect against MDS and CML [2]	change of UV-Vis absorption spectrum of aqueous solution [3]	storage stability [4]	colour of aqueous solution [3]
NC(=O)c1nc[nH]c1O [SM-108, 4-Carbamoyl-5-hydroxyimidazole]	turned indigo-blue	excellent effects	a broad absorption appeared in the visible-light region	poor storage stability	
NC(=O)c1nc[nH]c1O.O=S(=O)(O)c1ccccc1 [benzensulfonic acid salt of SM-108 [5], benzenesulfonic acid salt of SM-108]	remained colorless				
Cl.NC(=O)c1nc[nH]c1O [hydrochloric acid salt of SM-108]			did not change at all		remained colorless
